Results from patent US7994307B2, “RNAi modulation of the BCR-ABL fusion gene and uses thereof” (Alnylam Pharmaceuticals, Inc., priority 2004, dated 2011).
“Also recorded” adds a separate entry of the source. Where a name gives a salt, the structure may show the parent alone.

Experiments:
K562 cells = details: 48 h treatment with imatinib mesylate alone (Wilda et al.); cited from earlier work
32Dp210-H396P cells = assay: Sensitivity to imatinib mesylate of 32Dp210-H396P cells; type: cell-based, murine; details: 32D cells expressing Bcr-Abl-H396P
32Dp210-T315I cells = assay: Sensitivity to imatinib mesylate of 32Dp210-T315I cells; type: cell-based, murine; details: 32D cells expressing Bcr-Abl-T315I
p210Bcr-Abl (e14a2) = assay: Western blot of Bcr-Abl protein in 32Dp210/e14a2 cells after siRNA electroporation; type: cell-based, murine; details: 32Dp210Bcr-Abl (e14a2) cells
Description: (§1) Protein assay: Western blot analysis was performed ˜24 h following the last siRNA -treatment or ˜96 hours following transfection with the pSUPER siRNA-expression vector as described (Goetz A W, et al., Cancer Res. 2001, 61:7635)
(§2) siRNA-transfection: siRNAs were transfected into the murine cell lines 32Dp210Bcr-Abl-e14a2, -e13a2, 32Dp190Bcr-Abl-e1a2 and the human leukemic cell line MEG-01 using electroporation. Cell density was adjusted to 2.5-5×10^6/ml in RPMI/10% FCS. 800 μl of this cell suspension were mixed with siRNA in a 4 mm electroporation cuvette. Cells were electroporated by means of an EasyJect electroporator (peqlab, Erlangen, Germany) using a single-pulse protocol (250 V, 1800 μF, 8.). This treatment was repeated in intervals of 24 hours as indicated.
(§3) In 32Dp210Bcr-Abl-e14a2, -e13a2 and 32Dp190Bcr-Abl-e1a2 inhibition of Bcr-Abl can be compensated by addition of exogenous growth factor to the medium. Therefor, recombinant murine IL-3, (1 ng/ml) was added to the growth medium during siRNA treatment of these cell lines. Following the last siRNA treatment cells were washed and factor deprived before starting the different examination procedures (Western blot/MTT).
We used three murine hematopoetic 32D cell lines expressing either p210Bcr-Abl (e14a2), p210Bcr-Abl (e13a2) or p190Bcr-Abl (e1a2) to study the effectiveness of siRNAs to silence each of these human Bcr-Abl fusion breakpoint variants. In addition, experiments were performed in human Ph+leukemia cells (K562, MEG-01). All siRNAs used were directed to breakpoints of the Bcr and Abl sequence of the respective Bcr-Abl mRNA. RNAi-efficiency was assayed via analysis of Bcr-Abl protein levels and by monitoring the biological effect using MTT viability assay.

32Dp210/e14a2 cells [1] = assay: MTT viability assay in 32Dp210/e14a2 cells after siRNA electroporation; type: cell-based, murine; details: treated four times, MTT
Description: (§4) Survival Assay: Following the last siRNA treatment cells were seeded in 96 well plates and cultivated for another ˜48 hours. Cell survival was then measured by MTT assay as described (Van der Kuip H, et al., Blood. 2001, 98:1532)
as §2, §3

p210Bcr-Abl (e13a2) = assay: Western blot of Bcr-Abl protein in 32Dp210/e13a2 cells; type: cell-based, murine; details: 32Dp210Bcr-Abl (e13a2) cells, repeated electroporation
Description: (§5) FIGS. 1A-1B: ˜2.5 Mio 32Dp210/e13a2 cells have been electroporated 1-3×at intervals of 24 h with the indicated siRNA. BAF3/BAF15/BAF17/BAF19: bcr-abl-e13a2-specific siRNAs; BAF9: bcr-abl-e14a2-specific siRNA, served as control; EPC: electroporation control. FIG. 1A: Western blot analysis of p210^Bcr-abl (e13a2) in 32Dp210/e13a2˜24 h following siRNA treatment; the level of GAPDH served as loading control. Lane 1: EPC, Lane 2: BAF9, Lane 3: BAF3, Lane 4: BAF15, Lane 5: BAF17, Lane 6: BAF19. […] Values are means +/− SD of triplicates.
as §1, §2, §3

32Dp210/e13a2 cells = assay: MTT viability assay in 32Dp210/e13a2 cells; type: cell-based, murine; details: 32Dp210Bcr-Abl (e13a2) cells; for viability: repeated (up to three) treatments; for viability relative to controls (EPC): 48 h following 3rd treatment
Description: as §5, §4, §2, §3

32Dp210/e14a2 cells [2] = assay: Total cell number 48 h after last siRNA treatment, 32Dp210/e14a2 cells; type: cell-based, murine; details: start 2.5 Mio cells
Description: as §2
In order to determine optimal conditions for RNA interference, we repeated the siRNA treatment one to four times at intervals of 24 hours. […] Despite its short duration, the effect was still sufficient to reduce the viability of cells to approximately 59% relative to control cells (EPC, 100%). […] The residual viability level of the cells treated four times with BAF7 measured in MTT assay was not more than ˜2.5% of the level of the control cells. Identical results were obtained when cell counts 48 hours following last treatment were used for assessment of the biological effect. Both mock-treated and cells treated with a mismatch siRNA still increased their cell number from 2.5 Mio cells to more than 25 Mio cells within 48 hours. […] The lower efficiency of BAF1 became even more obvious when the biological effect of BAF1 was assessed.

MEG-01 cells = assay: MTT viability assay in MEG-01 cells; type: cell-based, human; details: treated three times
Description: as §4, §2
(§6) All three major Bcr-Abl oncogene variants -e14a2, -e13a2 and -e1a2 can be targeted by RNA interference. To identify effective siRNAs for inhibition of the second major Bcr-Abl fusion gene relevant in CML, Bcr-Abl-e13a2, we treated 32Dp210Bcr-Abl (e13a2) cells with four siRNAs (BAF3, BAF15, BAF17, BAF19) targeting different sequences of the Bcr-Able13a2 mRNA breakpoint. As a control we used a siRNA directed to the Bcr-Abl-e14a2 fusion sequence (BAF9). […] Despite the considerable overlap in their target sequence, BAF17 and BAF3 had no effect Bcr-Abl protein levels. […]

Bcr-Abl-e13a2 = assay: Western blot of Bcr-Abl protein in MEG-01 cells; type: cell-based, human; details: treated three times, compared to mismatch control BAF28
Description: as §1, §2, §6

p190Bcr-Abl (e1a2) = assay: Western blot of Bcr-Abl protein in 32Dp190/e1a2 cells; type: cell-based, murine; details: 32Dp190Bcr-Abl (e1a2) cells, treated twice at intervals of 24 h
Description: (§7) FIGS. 2A-2B: ˜5 Mio 32Dp190/e1a2 cells have been electroporated twice at intervals of 24 h with the indicated siRNA. BAF22/BAF24: bcr-abl-e1a2-specific siRNAs; BAF9: bcr-abl-e14a2-specific siRNA, served as control; BAF19: bcr-abl-e13a2-specific siRNA, served as control; EPC: electroporation control. FIG. 2A: Western blot analysis of p190^Bcr-abl (e1a2) in 32Dp190/e1a2 cells about 24 h following second siRNA treatment; the level of GAPDH served as loading control. Lane 1: EPC, Lane 2: BAF9, Lane 3: BAF19, Lane 4: BAF22, Lane 5: BAF24. […] Values are means +/− SD of triplicates.
as §1
siRNA-transfection: siRNAs were transfected into the murine cell lines 32Dp210Bcr-Abl-e14a2, -e13a2, 32Dp190Bcr-Abl-e1a2 and the human leukemic cell line MEG-01 using electroporation. Cell density was adjusted to 2.5-5×10^6/ml in RPMI/10% FCS. 800 μl of this cell suspension were mixed with siRNA in a 4 mm electroporation cuvette. Cells were electroporated by means of an EasyJect electroporator (peqlab, Erlangen, Germany) using a single-pulse protocol (250 V, 1800 μF, 8.). This treatment was repeated in intervals of 24 hours as indicated. […]

p190Bcr-Abl = assay: Western blot of p190Bcr-Abl in SUP-B15 cells; type: cell-based, human; details: 3 treatments at intervals of 24 hours, compared to EPC or BAF19 control
Description: FIG. 3: Cells from the human B cell precursor leukemia cell line SUP-B15 (ACC 389; DSMZ, Braunschweig, breakpoint variant e1a2) were treated as described for […] with an e1a2-specific siRNA (BAF22) or with siRNA directed to another breakpoint variant (BAF19, specific for e13a2) as a control.
as §2
SUP-B15 cells were treated by electroporation as described above with an e1a2-specific siRNA (BAF22) or with siRNA directed to another breakpoint variant (BAF19) as a control.

32Dp190/e1a2 cells = assay: MTT viability assay in 32Dp190/e1a2 cells; type: cell-based, murine
Description: as §7
[…] Cell survival was then measured by MTT assay as described (Van der Kuip H, et al., Blood. 2001, 98:1532)
as §2
In 32Dp210Bcr-Abl-e14a2, -e13a2 and 32Dp190Bcr-Abl-e1a2 inhibition of Bcr-Abl can be compensated by addition of exogenous growth factor to the medium. […]

Sequence of p210Bcr-Abl (e13a2) (P11274+P00519 fused): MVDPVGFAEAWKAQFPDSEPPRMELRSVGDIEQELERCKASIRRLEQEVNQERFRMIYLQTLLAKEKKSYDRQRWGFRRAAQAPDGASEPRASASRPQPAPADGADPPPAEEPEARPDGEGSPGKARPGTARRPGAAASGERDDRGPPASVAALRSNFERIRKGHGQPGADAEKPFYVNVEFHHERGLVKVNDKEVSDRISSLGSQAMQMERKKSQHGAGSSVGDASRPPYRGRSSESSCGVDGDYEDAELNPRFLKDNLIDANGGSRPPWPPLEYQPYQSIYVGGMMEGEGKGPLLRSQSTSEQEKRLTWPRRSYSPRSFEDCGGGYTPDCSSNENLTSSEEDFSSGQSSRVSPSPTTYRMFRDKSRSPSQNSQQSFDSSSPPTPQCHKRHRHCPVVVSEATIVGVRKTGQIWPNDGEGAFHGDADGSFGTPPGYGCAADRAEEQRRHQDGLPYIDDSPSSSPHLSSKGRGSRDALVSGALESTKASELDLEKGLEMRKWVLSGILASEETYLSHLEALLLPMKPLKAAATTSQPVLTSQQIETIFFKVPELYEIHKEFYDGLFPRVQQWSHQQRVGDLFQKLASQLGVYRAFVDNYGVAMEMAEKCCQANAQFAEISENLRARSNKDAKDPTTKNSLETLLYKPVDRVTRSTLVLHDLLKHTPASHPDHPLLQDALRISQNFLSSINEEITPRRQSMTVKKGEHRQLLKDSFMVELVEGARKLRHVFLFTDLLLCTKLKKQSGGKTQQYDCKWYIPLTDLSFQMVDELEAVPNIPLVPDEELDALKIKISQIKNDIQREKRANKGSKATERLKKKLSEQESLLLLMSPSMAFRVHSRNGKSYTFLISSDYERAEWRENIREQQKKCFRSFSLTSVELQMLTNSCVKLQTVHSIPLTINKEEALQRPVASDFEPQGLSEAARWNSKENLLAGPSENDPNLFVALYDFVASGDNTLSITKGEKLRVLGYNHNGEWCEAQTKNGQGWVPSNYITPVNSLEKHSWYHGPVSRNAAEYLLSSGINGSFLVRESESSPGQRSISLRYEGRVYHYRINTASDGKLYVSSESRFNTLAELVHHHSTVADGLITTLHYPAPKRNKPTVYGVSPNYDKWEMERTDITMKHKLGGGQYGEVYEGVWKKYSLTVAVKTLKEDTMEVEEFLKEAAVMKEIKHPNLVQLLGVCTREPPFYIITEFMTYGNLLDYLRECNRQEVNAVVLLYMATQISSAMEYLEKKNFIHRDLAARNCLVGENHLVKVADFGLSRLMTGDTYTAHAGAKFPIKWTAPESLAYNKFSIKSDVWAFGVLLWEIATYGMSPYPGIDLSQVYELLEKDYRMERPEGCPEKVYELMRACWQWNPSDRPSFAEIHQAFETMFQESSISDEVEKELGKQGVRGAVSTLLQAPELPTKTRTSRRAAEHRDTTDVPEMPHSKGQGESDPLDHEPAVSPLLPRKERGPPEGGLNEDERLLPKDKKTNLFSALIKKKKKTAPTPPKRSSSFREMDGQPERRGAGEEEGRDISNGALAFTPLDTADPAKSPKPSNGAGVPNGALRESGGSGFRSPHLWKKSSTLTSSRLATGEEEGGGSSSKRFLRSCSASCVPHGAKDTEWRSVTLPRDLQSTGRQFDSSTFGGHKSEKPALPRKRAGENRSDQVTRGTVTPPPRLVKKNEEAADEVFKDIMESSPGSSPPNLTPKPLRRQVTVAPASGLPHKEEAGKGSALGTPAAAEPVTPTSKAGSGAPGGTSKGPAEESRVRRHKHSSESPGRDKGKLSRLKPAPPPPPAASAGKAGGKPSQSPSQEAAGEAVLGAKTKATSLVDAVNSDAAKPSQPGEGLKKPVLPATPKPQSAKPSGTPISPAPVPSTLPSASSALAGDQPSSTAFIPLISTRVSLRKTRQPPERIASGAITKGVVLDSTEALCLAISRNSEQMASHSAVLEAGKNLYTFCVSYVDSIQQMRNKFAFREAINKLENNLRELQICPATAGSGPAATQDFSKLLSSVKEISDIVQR
Sequence of p210Bcr-Abl (e14a2) (P11274+P00519 fused): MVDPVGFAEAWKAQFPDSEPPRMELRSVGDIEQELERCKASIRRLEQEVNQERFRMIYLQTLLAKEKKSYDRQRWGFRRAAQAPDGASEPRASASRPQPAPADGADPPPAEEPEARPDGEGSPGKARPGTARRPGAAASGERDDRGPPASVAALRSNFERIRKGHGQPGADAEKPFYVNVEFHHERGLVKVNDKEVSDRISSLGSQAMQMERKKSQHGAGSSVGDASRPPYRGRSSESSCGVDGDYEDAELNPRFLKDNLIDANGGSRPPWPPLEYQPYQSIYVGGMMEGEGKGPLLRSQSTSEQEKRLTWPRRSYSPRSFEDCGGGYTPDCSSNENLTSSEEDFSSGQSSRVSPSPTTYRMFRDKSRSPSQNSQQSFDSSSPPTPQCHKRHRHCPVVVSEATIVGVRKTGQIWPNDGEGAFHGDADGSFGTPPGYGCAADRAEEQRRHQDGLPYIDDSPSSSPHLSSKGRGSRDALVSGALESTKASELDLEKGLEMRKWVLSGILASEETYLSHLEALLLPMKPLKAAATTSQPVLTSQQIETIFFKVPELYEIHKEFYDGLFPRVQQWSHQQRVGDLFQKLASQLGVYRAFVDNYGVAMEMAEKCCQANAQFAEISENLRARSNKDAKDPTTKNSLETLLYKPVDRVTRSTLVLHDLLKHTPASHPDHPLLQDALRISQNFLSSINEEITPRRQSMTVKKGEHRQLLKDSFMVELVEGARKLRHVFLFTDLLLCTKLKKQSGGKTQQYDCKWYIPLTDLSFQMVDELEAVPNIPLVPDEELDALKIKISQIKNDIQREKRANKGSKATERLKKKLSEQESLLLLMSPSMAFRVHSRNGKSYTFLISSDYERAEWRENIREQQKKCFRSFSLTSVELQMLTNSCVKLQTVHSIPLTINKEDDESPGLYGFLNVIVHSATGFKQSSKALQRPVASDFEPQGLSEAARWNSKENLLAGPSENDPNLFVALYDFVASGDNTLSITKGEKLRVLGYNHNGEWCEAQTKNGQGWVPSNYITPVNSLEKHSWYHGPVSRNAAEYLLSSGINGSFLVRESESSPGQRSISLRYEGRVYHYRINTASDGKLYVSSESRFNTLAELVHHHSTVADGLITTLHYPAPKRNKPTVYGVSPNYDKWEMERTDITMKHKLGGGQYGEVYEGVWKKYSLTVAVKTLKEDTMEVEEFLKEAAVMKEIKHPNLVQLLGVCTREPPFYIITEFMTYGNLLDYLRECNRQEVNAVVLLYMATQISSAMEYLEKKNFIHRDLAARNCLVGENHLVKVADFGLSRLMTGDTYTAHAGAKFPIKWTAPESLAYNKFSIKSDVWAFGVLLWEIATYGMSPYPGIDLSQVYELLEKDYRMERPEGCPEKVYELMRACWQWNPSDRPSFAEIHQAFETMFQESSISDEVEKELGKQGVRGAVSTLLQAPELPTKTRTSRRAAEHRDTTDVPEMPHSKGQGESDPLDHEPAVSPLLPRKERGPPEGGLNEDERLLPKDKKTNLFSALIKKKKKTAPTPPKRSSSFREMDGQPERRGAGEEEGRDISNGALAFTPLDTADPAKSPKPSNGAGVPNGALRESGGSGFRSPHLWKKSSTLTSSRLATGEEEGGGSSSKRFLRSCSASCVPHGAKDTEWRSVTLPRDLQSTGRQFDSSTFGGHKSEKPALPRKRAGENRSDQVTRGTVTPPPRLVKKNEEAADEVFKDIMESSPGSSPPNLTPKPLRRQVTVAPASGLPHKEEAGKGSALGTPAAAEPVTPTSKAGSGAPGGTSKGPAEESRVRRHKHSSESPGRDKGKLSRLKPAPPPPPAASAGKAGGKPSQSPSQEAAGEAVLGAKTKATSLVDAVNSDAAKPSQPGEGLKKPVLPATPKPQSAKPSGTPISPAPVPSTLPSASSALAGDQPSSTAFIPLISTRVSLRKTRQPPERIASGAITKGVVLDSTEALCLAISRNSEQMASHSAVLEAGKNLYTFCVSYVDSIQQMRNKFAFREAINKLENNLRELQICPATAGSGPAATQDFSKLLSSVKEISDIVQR

Cc1ccc(NC(=O)c2ccc(CN3CCN(C)CC3)cc2)cc1Nc1nccc(-c2cccnc2)n1 [imatinib mesylate, Imatinib mesylate]
cells undergoing apoptosis (K562 cells): 8%
loss of sensitivity to imatinib mesylate compared to 32Dp210-wt (32Dp210-H396P cells): ~4.7 fold
resistance to imatinib mesylate (32Dp210-T315I cells): complete resistance

BAF1: siRNA duplex, SEQ ID No. 7/8, single mismatch compared to BAF7 (chain 1 CAGAGUUGAAAAGCCCUUCAG; chain 2 CUGAAGGGCUUUUCAACUCUGCU; listed as RNA, chemistry not given here) [reference compound]
down-regulation of Bcr-Abl protein levels compared to BAF7 (p210Bcr-Abl (e14a2)): less efficient down-regulation
viability relative to EPC (32Dp210/e14a2 cells [1]): 52%

BAF3: siRNA duplex, SEQ ID No. 9/10, specific for Bcr-Abl-e13a2 (chain 1 UAAGGAAGAAGCCCUUCAGCG; chain 2 CGCUGAAGGGCUUCUUCCUUAUU; listed as RNA, chemistry not given here)
Bcr-Abl protein levels (p210Bcr-Abl (e13a2)): completely ineffective; also recorded: no effect
viability (32Dp210/e13a2 cells): did also not interfere with the viability

BAF8: siRNA duplex, SEQ ID No. 3/4, Bcr-Abl-e14a2, mismatch control to BAF7 (three mismatches) (chain 1 CAGUGUUCAUAAGCCGUUCAG; chain 2 CUGAACGGCUUAUGAACACUGCU; chemistry not given here)
total cell number 48 h following last treatment (32Dp210/e14a2 cells [2]): more than 25 Mio cells

BAF15: siRNA duplex, SEQ ID No. 11/25, specific for Bcr-Abl-e13a2 (chain 1 AAUAAGGAAGAAGCCCUUCAG; chain 2 CUGAAGGGCUUCUUCCUUAUUGA; listed as RNA, chemistry not given here)
Bcr-Abl protein levels (p210Bcr-Abl (e13a2)): effective down-regulation
viability relative to controls (EPC) (32Dp210/e13a2 cells): ~10%
viability (32Dp210/e13a2 cells): almost complete loss of viability; also recorded: reduction of viability

BAF17: siRNA duplex, SEQ ID No. 13/26, specific for Bcr-Abl-e13a2 (chain 1 GGAAGAAGCCCUUCAGCGGCC; chain 2 GGCCGCUGAAGGGCUUCUUCCUU; listed as RNA, chemistry not given here)
Bcr-Abl protein levels (p210Bcr-Abl (e13a2)): no effect
viability (32Dp210/e13a2 cells): did also not interfere with the viability

BAF19: siRNA duplex, SEQ ID No. 15/27, specific for Bcr-Abl-e13a2 (chain 1 AUCAAUAAGGAAGAAGCCCUU; chain 2 AAGGGCUUCUUCCUUAUUGAUGG; listed as RNA, chemistry not given here)
viability compared to control cells (EPC, 100%) (MEG-01 cells): ~28%
Bcr-Abl protein levels (p210Bcr-Abl (e13a2)): effective down-regulation
viability relative to controls (EPC) (32Dp210/e13a2 cells): ~14%
viability (32Dp210/e13a2 cells): almost complete loss of viability; also recorded: reduction of viability
Bcr-Abl protein levels / Bcr-Abl-e13a2 expression (Bcr-Abl-e13a2): effectively silenced Bcr-Abl-e13a2 expression; also recorded: significant loss of Bcr-Abl protein levels

BAF22: siRNA duplex, SEQ ID No. 19/28, specific for Bcr-Abl-e1a2 (chain 1 GGAGACGCAGAAGCCCUUCAG; chain 2 CUGAAGGGCUUCUGCGUCUCCAU; listed as RNA, chemistry not given here)
Bcr-Abl protein levels / Bcr-Abl-e1a2 gene expression (p190Bcr-Abl (e1a2)): actively silenced Bcr-Abl-e1a2 gene expression; also recorded: significant down-regulation
p190Bcr-Abl protein levels / Bcr-Abl-e1a2 expression (p190Bcr-Abl): effectively silenced Bcr-Abl-e1a2 expression; also recorded: significantly reduced
viability (32Dp190/e1a2 cells; 32Dp190/e1a2 cells, repeated treatment, ~40 h after second treatment): reduction of viability
viability compared to EPC (100%) (32Dp190/e1a2 cells; 32Dp190Bcr-Abl (e1a2) cells, after 2nd treatment): 15%

BAF24: siRNA duplex, SEQ ID No. 21/22, specific for Bcr-Abl-e1a2 (chain 1 GACGCAGAAGCCCUUCAGCGG; chain 2 CCGCUGAAGGGCUUCUGCGUCUC; listed as RNA, chemistry not given here)
Bcr-Abl protein levels / Bcr-Abl-e1a2 gene expression (p190Bcr-Abl (e1a2)): no effect at all
